Structures can show the parent of a compound that is named as a salt.
Experiments:
HCMV = test: Virus entry, pp65 immunofluorescence assay; type: cell-based, Human Cytomegalovirus; conditions: emetine 75 nM, GCV 10 μM, CpG 2006 10 μM, added 24 h prior to infection
[1] = system: pp28-luciferase HCMV Towne; test: Second cycle infection luciferase assay; type: cell-based, Human Cytomegalovirus; conditions: emetine 75 nM
Procedure: Human Foreskin Fibroblasts (HFFs) passage 12–16 (ATCC, CRL-2088) and mouse embryonic fibroblasts (MEFs) passage 9–14 (ATCC, CRL-1658) were grown in Dulbecco's Modified Eagle Medium (DMEM) containing 10% fetal bovine serum (FBS) (Gibco, Carlsbad, CA) in a 5% CO2 incubator at 37°C. Infection with HCMV or HSV was performed in HFFs, and infection with mouse CMV was performed in MEFs. For HCMV, cells were seeded in either a 96-well plate or 100 mm culture plates (Corning Costar, Sigma Aldrich) at 0.5 or 2 million cells /plate. Following 90 minute adsorption, media was removed and cells were washed with PBS. Media containing 4% FBS and compounds were added to each well. Infected treated HFFs were collected at 72 hpi and lysates were assayed for luciferase activity using a luciferase assay kit (Promega, Madison, WI) on GloMax-Multi+ Detection System (Promega). In second cycle assays, supernatants were collected from all conditions of the first cycle at 96 hpi and used for infection of fresh HFFs in 96-well plates. Luciferase activity was measured 72 h following second cycle infection. For HSV1-KOS/Dlux/oriS, a luciferase assay was performed at 24 hpi. […] After incubation at 37°C for 10 days (for HCMV), 3 days for MCMV or 2 days (for HSV), the overlay was removed and plaques were counted after crystal violet staining.

HCMV Towne [2] = test: Add-on and removal studies, plaque titration; type: cell-based, Human Cytomegalovirus; conditions: supernatants at 72 hpi
Procedure: For time-of-removal studies, medium containing the compounds was removed at 0, 6, 12, 24, 36 and 48 hpi, cells were washed three times with PBS, and drug-free medium was added. Culture supernatants were collected at 72 hpi and titration of infectious virus was performed after 14 days by plaque assay.

MDM2-p53 = test: Co-immunoprecipitation MDM2-p53; type: cell-based, human; conditions: emetine 75 nM, infected high-density cells, 24 hpi, MG132
Procedure: Non-infected, infected or emetine-treated HFFs were treated with MG132 (10 μM) for 12h. Cells were harvested after 24 hpi and lysed with IP buffer containing 150 mM NaCl, 50mM Tris pH 7.5, 2 mM EDTA, 0.5% TritonX-100 and 0.5% NP-40-40. 1 mg of lysate was precleared with bead slurry for 30 min. The precleared lysates were incubated with anti-MDM2 (2 μg) antibody overnight. The antibody complexes were isolated using protein A/G beads (Santa Cruz), washed three times with 50% IP buffer. The immunoprecipitate-protein A/G beads were boiled in SDS sample buffer, and the supernatant was analyzed on SDS-PAGE gels after immunoblotting as described previously. 1% of the cell lysate used for IP was loaded on gels as ‘Input’. Confirmatory reverse IPs were performed as described in each experiment. Isotype control antibodies included: rabbit IgG polyclonal, mouse IgG2a kappa and mouse IgG2b kappa monoclonal (Abcam). Mouse monoclonal RPS19 antibody (Abcam) served as an additional negative control for the IPs. Densitometry analysis was performed to determine relative ratio of immunoprecipitated protein to its input level.

HCMV Towne [3] = test: HCMV plaque reduction assay in HFFs; type: cell-based, Human Cytomegalovirus
Procedure: Human Foreskin Fibroblasts (HFFs) passage 12–16 (ATCC, CRL-2088) and mouse embryonic fibroblasts (MEFs) passage 9–14 (ATCC, CRL-1658) were grown in Dulbecco's Modified Eagle Medium (DMEM) containing 10% fetal bovine serum (FBS) (Gibco, Carlsbad, CA) in a 5% CO2 incubator at 37°C. Infection with HCMV or HSV was performed in HFFs, and infection with mouse CMV was performed in MEFs. For HCMV, cells were seeded in either a 96-well plate or 100 mm culture plates (Corning Costar, Sigma Aldrich) at 0.5 or 2 million cells /plate. Following 90 minute adsorption, media was removed and cells were washed with PBS. Media containing 4% FBS and compounds were added to each well. Infected treated HFFs were collected at 72 hpi and lysates were assayed for luciferase activity using a luciferase assay kit (Promega, Madison, WI) on GloMax-Multi+ Detection System (Promega). In second cycle assays, supernatants were collected from all conditions of the first cycle at 96 hpi and used for infection of fresh HFFs in 96-well plates. Luciferase activity was measured 72 h following second cycle infection. For HSV1-KOS/Dlux/oriS, a luciferase assay was performed at 24 hpi. Plaque assays were performed with clinical isolates of HSV2 and HCMV Towne (ATCC VR-977). HFFs were seeded at […] in 12-well plates and infected 24 h later with HSV2 at 200 PFU/well. For HCMV or MCMV, HFFs or MEFs were seeded at 0.5 or 2 million cells /plate in a 12-well plate and infected 24 hours later at 100 PFU/well. Following virus adsorption (60 min and 90 min for HSV and HCMV, respectively), virus was aspirated, and DMEM containing 4% fetal bovine serum (FBS) with (for HSV) or without (for HCMV/MCMV) 0.5% carboxymethyl-cellulose, were added with the compounds at indicated concentrations into triplicate wells. After incubation at 37°C for 10 days (for HCMV), 3 days for MCMV or 2 days (for HSV), the overlay was removed and plaques were counted after crystal violet staining.

[4] = system: HCMV proteins IE1/2, UL44 and pp65; test: Western blot of viral proteins; type: cell-based, Human Cytomegalovirus; conditions: emetine 75 nM, 72 hpi
Source text: Cell lysates were quantified for protein content using bicinchoninic acid (BCA) protein assay kit (Pierce Chemical, Rockford, IL). Equivalent amount of proteins were used for Western blot analysis as described previously (11). Protein bands were visualized by chemiluminescence using Western Blotting Luminol Reagent (Santa Cruz Biotechnology, Santa Cruz, CA). The following antibodies were used for detection of HCMV proteins: mouse anti-IE1 and IE2, (MAb810); mouse anti-UL44 (Santa Cruz biotechnology); mouse monoclonal anti-pp65 (Vector laboratories, Burlingame, CA); mouse monoclonal anti-β-actin antibody (Millipore, Billerica, MA); rabbit polyclonal anti-RPS14 and mouse monoclonal anti-MDM2 (AbCam, Cambridge, UK), mouse monoclonal anti-p53 (Santa Cruz); horseradish peroxidase (HRP)-conjugated goat anti-rabbit IgG (Cell Signaling); and HRP-conjugated sheep anti-mouse IgG, (GE Healthcare, Waukesha, WI). For detection of co-immunoprecipitated proteins, protein A-HRP conjugate (Cell Signaling Technologies, Beverly, MA) was used as secondary antibody to eliminate the interfering IgG bands.

[5] = system: clinical isolates of HSV2; test: HSV-2 plaque assay in HFFs; type: cell-based; conditions: Human alphaherpesvirus 2, read-out: Mean EC50 ± SD
Procedure: (§1) The pp28-luciferase HCMV Towne and a GCV-resistant pp28-luciferase were used. The recombinant viruses express luciferase under the control of the late CMV gene promoter, pp28. Luciferase expression is activated 48–72 hours post infection (hpi). The recombinant viruses provide a highly-sensitive reporter system which correlates with plaque reduction assay. The Towne HCMV strain (ATCC VR-977) was used for plaque reduction, quantitative reverse transcriptase PCR (qRT-PCR), and immunoprecipitation assays. Human herpes virus strains were: luciferase HSV1- KOS/Dlux/oriS [52] and clinical isolates of HSV2. The clinical isolates were provided by the clinical microbiology laboratory with no identifiers that can link to a specific subject. Murid Herpesvirus (MCMV: ATCC VR-1399) was used for infection of mouse embryonic fibroblasts (MEFs) and mice.
(§2) Human Foreskin Fibroblasts (HFFs) passage 12–16 (ATCC, CRL-2088) and mouse embryonic fibroblasts (MEFs) passage 9–14 (ATCC, CRL-1658) were grown in Dulbecco's Modified Eagle Medium (DMEM) containing 10% fetal bovine serum (FBS) (Gibco, Carlsbad, CA) in a 5% CO2 incubator at 37°C. […] Luciferase activity was measured 72 h following second cycle infection. […] After incubation at 37°C for 10 days (for HCMV), 3 days for MCMV or 2 days (for HSV), the overlay was removed and plaques were counted after crystal violet staining.

[6] = Cell viability, MTT-based colorimetric assay; conditions: human, non-infected human foreskin fibroblasts (HFFs), cell viability after 72 h
Procedure: Cell viability was determined by an MTT-based colorimetric assay (Sigma-Aldrich), and performed at the same time points as the antiviral assay.

HSV1- KOS/Dlux/oriS = test: HSV-1 luciferase assay in HFFs; type: cell-based, herpesvirus 1 (HSV-1); conditions: Human alphaherpesvirus 1, read-out: Mean EC50 ± SD
Procedure: as §1, §2

Compound: CC[C@H]1CN2CCc3cc(OC)c(OC)cc3[C@@H]2C[C@@H]1C[C@H]1NCCc2cc(OC)c(OC)cc21 [emetine, emetine dihydrochloride hydrate]
- inhibition of viral entry (HCMV): neither emetine nor GCV inhibited viral entry
- increase in pp28-luciferase activity, second cycle infection, compared to infected control ([1]; 0.5 million cells/plate): 1.5 fold
- pp28-luciferase activity, second cycle infection, compared to infected control ([1]; 1 and 2 million cells/plate): near complete inhibition
- anti-HCMV activity when added after infection (add-on) (HCMV Towne [2]; addition after 12 h): loss of activity against HCMV
- time compound is required to fully inhibit HCMV (removal assay) (HCMV Towne [2]; plaque assay): at least 24 h
- interaction between MDM2 and p53 (MDM2-p53): disrupted
- EC50 (HCMV Towne [3]; Human betaherpesvirus 5, read-out: Mean EC50 ± SD): 68 nM
- reduction in the number and size of plaques (HCMV Towne [3]; emetine 75 nM, 2 million cells/plate as compared to 0.5 million cells/plate): 30 fold
- expression of HCMV proteins IE1/2, UL44 and pp65 [4]: significantly reduced
- EC50 [5]: 33 nM
- CC50 at 72 h [6]: 8000 ± 560 nM
- EC50 (HSV1- KOS/Dlux/oriS): 56 nM
